Measured values reported in publication PMC3297713 (Journal of Medicinal Chemistry, 2012).

Tests used:
[1] = molecular target: full-length human ERβ (Homo sapiens, UniProt Q92731); experiment: 3X-ERE luciferase reporter gene assay in HepG2 cells, ERβ; format: cell-based
[2] = molecular target: T1, full-length human ERα (Homo sapiens, UniProt P03372); experiment: 3X-ERE luciferase reporter gene assay in HepG2 cells, ERα; format: cell-based
T1 sequence (P03372 1-595): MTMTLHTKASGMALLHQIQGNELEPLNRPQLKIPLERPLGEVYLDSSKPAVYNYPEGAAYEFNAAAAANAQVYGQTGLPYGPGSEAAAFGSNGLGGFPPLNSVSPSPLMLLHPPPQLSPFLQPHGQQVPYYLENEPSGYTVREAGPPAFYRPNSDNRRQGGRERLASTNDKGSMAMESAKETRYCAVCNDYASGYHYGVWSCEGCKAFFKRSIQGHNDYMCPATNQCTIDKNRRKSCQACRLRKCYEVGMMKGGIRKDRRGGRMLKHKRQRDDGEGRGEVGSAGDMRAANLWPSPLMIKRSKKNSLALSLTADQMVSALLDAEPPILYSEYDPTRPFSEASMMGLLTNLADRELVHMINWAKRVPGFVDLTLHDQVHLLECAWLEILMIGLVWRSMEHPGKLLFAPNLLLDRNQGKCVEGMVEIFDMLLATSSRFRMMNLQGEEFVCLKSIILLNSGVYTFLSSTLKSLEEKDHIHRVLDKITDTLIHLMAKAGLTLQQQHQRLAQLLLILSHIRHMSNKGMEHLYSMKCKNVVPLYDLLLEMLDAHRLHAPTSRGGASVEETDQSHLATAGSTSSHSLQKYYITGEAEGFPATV

full-length human ERβ, sequence (Q92731 whole entry): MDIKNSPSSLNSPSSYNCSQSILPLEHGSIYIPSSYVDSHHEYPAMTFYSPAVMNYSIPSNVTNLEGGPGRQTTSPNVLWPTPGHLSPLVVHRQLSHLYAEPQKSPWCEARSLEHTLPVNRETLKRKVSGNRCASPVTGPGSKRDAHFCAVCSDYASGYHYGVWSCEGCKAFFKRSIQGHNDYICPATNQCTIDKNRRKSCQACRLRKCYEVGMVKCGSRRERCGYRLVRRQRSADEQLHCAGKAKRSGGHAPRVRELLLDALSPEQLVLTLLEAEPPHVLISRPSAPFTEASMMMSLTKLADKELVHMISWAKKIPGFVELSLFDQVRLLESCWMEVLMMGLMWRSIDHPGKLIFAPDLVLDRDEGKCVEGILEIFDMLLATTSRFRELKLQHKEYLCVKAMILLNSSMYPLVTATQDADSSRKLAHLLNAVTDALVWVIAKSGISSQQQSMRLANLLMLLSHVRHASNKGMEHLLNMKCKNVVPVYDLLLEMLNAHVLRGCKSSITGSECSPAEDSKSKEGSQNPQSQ

Structure (SMILES)	EC50 [1]	also measured
Cc1cc(O)ccc1C1=C(c2ccc(O)cc2C)[C@H]2[C@@H](S(=O)(=O)Oc3ccc(Cl)cc3)C[C@@H]1[S+]2[O-] (relative stereo) [Compound 11g]	> 10 µM	–
O=S(=O)(Oc1ccc(O)cc1)[C@H]1C[C@H]2C(c3ccccc3)=C(c3ccccc3)[C@@H]1[S+]2[O-] (relative stereo) [Compound 13]	> 10 µM	EC50 [2]: > 10 µM
COc1ccc(OS(=O)(=O)[C@H]2C[C@H]3C(c4ccc(O)cc4)=C(c4ccc(O)cc4)[C@@H]2[S+]3[O-])cc1 (relative stereo) [Compound 10b]	> 10 µM	EC50 [2]: > 10 µM
CCOC(=O)[C@@H]1[C@H](C(=O)OCC)[C@@H]2C(c3ccc(O)cc3)=C(c3ccc(O)cc3)[C@H]1[S+]2[O-] (relative stereo) [Compound 10e]	> 10 µM	EC50 [2]: > 10 µM
O=S(=O)(Oc1ccccc1)[C@H]1C[C@H]2C(c3ccc(O)cc3)=C(c3ccc(O)cc3)[C@@H]1[S+]2[O-] (relative stereo) [Compound 10a]	> 10 µM	ERβ agonist activity (in words) [1]: do not activate ERβ; ERα functional profile (in words) [2]: lacks ERα antagonist activity
Cc1cc(C2=C(c3ccc(O)c(C)c3)[C@H]3[C@@H](S(=O)(=O)Oc4ccccc4Br)C[C@@H]2[S+]3[O-])ccc1O (relative stereo) [Compound 12e]	> 10 µM	–
Cc1cc(O)ccc1C1=C(c2ccc(O)cc2C)[C@H]2[C@@H](S(=O)(=O)Oc3cccc4ccccc34)C[C@@H]1[S+]2[O-] (relative stereo) [Compound 11j]	> 10 µM	–
COc1ccc(OS(=O)(=O)[C@H]2C[C@H]3C(c4ccc(O)c(C)c4)=C(c4ccc(O)c(C)c4)[C@@H]2[S+]3[O-])cc1 (relative stereo) [Compound 12b]	> 10 µM	–
Cc1cc(C2=C(c3ccc(O)c(C)c3)[C@H]3[C@@H](S(=O)(=O)Oc4ccccc4)C[C@@H]2[S+]3[O-])ccc1O (relative stereo) [Compound 12a]	> 10 µM	–
Cc1ccc(C2=C(c3ccc(C)cc3)[C@H]3[C@@H](S(=O)(=O)Oc4ccc(O)cc4)C[C@@H]2[S+]3[O-])cc1 (relative stereo) [Compound 14]	> 10 µM	–
COc1ccc(OS(=O)(=O)[C@H]2C[C@H]3C(c4ccc(O)cc4C)=C(c4ccc(O)cc4C)[C@@H]2[S+]3[O-])cc1 (relative stereo) [Compound 11b]	> 10 µM	–
Cc1cc(O)ccc1C1=C(c2ccc(O)cc2C)[C@H]2[C@@H](S(=O)(=O)Oc3ccccc3Br)C[C@@H]1[S+]2[O-] (relative stereo) [Compound 11e]	> 10 µM	–
Cc1cc(C2=C(c3ccc(O)c(C)c3)[C@H]3[C@@H](S(=O)(=O)Oc4ccccc4Cl)C[C@@H]2[S+]3[O-])ccc1O (relative stereo) [Compound 12d]	> 10 µM	–
Cc1cc(O)ccc1C1=C(c2ccc(O)cc2C)[C@H]2[C@@H](S(=O)(=O)Oc3ccc(F)cc3)C[C@@H]1[S+]2[O-] (relative stereo) [Compound 11f]	> 10 µM	–
O=S(=O)(Oc1ccc(O)cc1)[C@H]1C[C@H]2C(c3ccc(O)cc3)=C(c3ccc(O)cc3)[C@@H]1[S+]2[O-] (relative stereo) [Compound 10c]	> 10 µM	–
CCOC(=O)[C@@H]1[C@H](C(=O)OCC)[C@@H]2C(c3ccc(O)c(C)c3)=C(c3ccc(O)c(C)c3)[C@H]1[S+]2[O-] (relative stereo) [Compound 12i]	> 10 µM	EC50 [2]: > 10 µM
Cc1cc(O)ccc1C1=C(c2ccc(O)cc2C)[C@H]2[C@@H](S(=O)(=O)Oc3ccccc3F)C[C@@H]1[S+]2[O-] (relative stereo) [Compound 11c]	> 10 µM	–
Cc1cc(C2=C(c3ccc(O)c(C)c3)[C@H]3[C@@H](S(=O)(=O)Oc4cccc5ccccc45)C[C@@H]2[S+]3[O-])ccc1O (relative stereo) [Compound 12f]	> 10 µM	–
Cc1cc(C2=C(c3ccc(O)c(C)c3)[C@H]3[C@@H](S(=O)(=O)Oc4ccccc4F)C[C@@H]2[S+]3[O-])ccc1O (relative stereo) [Compound 12c]	> 10 µM	–
